Consider seven molecules from ChEMBL document CHEMBL4616581, “Current scenario of artemisinin and its analogues for antimalarial activity” (Eur J Med Chem, 2019).

≈ marks a conversion by molar mass, not a printed value.

Type in all cases: functional, organism-based
For assay [1], the system named is Plasmodium falciparum. The assay can be described thus: Antimalarial activity against chloroquine-resistant Plasmodium falciparum K1 after 48 hrs by [3H]-hypoxanthine incorporation assay.
For assay [2], the system named is Plasmodium falciparum. The assay can be described thus: Antimalarial activity against Plasmodium falciparum HB3 after 48 hrs by [3H]-hypoxanthine incorporation assay.
The subject of assay [3] is Plasmodium falciparum. The assay can be described thus: Antimalarial activity against Plasmodium falciparum K1 after 48 hrs by [3H]hypoxanthine incorporation assay.
The test system of assay [4] is Plasmodium falciparum. As to the kind of experiment: Antimalarial activity against Plasmodium falciparum HB3 after 48 hrs by [3H]hypoxanthine incorporation assay.
Assay [5] has as its system Plasmodium falciparum. As to the kind of experiment: Antimalarial activity against Plasmodium falciparum 3D7 after 72 hrs by SYBR green dye-based assay. The settings on record: 3D7, 72 h.
The test system of assay [6] is Plasmodium falciparum. The assay can be described thus: Antimalarial activity against blood stages of chloroquine-resistant Plasmodium falciparum K1.
The test system of assay [7] is Plasmodium falciparum. The assay can be described thus: Antimalarial activity against blood stages of chloroquine-sensitive Plasmodium falciparum 3D7.

In general, IC50 refers to the concentration at which inhibition is half-maximal. A low value points to inhibition by little substance. As to `C[C@H]1[C@@H](CCOP(=O)(OCC[C@H]2O[C@@H]3O[C@]4(C)CC[C@H]5[C@H](C)CC[C@@H]([C@H]2C)[C@@]35OO4)Oc2ccccc2)O[C@@H]2O[C@]3(C)CC[C@H]4[C@H](C)CC[C@@H]1[C@@]24OO3`, the figures for the IC50 in the assay with Plasmodium falciparum [1] and in the assay with Plasmodium falciparum [2] were 0.5 nM and 0.18 nM, respectively.

For the molecule `COP(=O)(OCC[C@H]1O[C@@H]2O[C@]3(C)CC[C@H]4[C@H](C)CC[C@@H]([C@H]1C)[C@@]24OO3)OCC[C@H]1O[C@@H]2O[C@]3(C)CC[C@H]4[C@H](C)CC[C@@H]([C@H]1C)[C@@]24OO3`, the results for the IC50 in the assay with Plasmodium falciparum [1] and in the assay with Plasmodium falciparum [2] were 0.2 nM and 0.09 nM, respectively.

As for `C[C@H]1[C@@H](Oc2cccc3ccccc23)O[C@@H]2O[C@]3(C)CC[C@H]4[C@H](C)CC[C@@H]1[C@@]24OO3`, the IC50 with Plasmodium falciparum [3] is 8.89 nM; in the assay on Plasmodium falciparum [4], 7.06 nM.

In general, EC50 refers to the concentration needed to bring the measured effect to its halfway point. Molecule `C[C@H]1[C@H](OC(=O)CCC(=O)Nc2ccc3ncnc(Nc4ccc(Cl)c(Cl)c4)c3c2)O[C@@H]2O[C@]3(C)CC[C@H]4[C@H](C)CC[C@@H]1[C@@]24OO3` displayed an EC50 with Plasmodium falciparum [5] of 1.4 nM.

In the case of `C[C@H]1[C@H](Oc2cccc3ccccc23)O[C@@H]2O[C@]3(C)CC[C@H]4[C@H](C)CC[C@@H]1[C@@]24OO3`, the IC50 in the assay with Plasmodium falciparum [3] and with Plasmodium falciparum [4] was 2.88 nM each time.

As for `C[C@H]1[C@H](OC(=O)CCC(=O)Oc2ccc(Nc3ncnc4ccccc34)cc2)O[C@@H]2O[C@]3(C)CC[C@H]4[C@H](C)CC[C@@H]1[C@@]24OO3`, the half-maximal effective concentration (EC50) with Plasmodium falciparum [5] came to 3.8 nM.

`C[C@@H]1CC[C@H]2[C@@H](C)C(=O)O[C@@H]3O[C@@]4(C)CC[C@@H]1[C@]32OO4` [ARTEMISININ]: in the assay with Plasmodium falciparum [6], the 50% inhibitory concentration (IC50) turned out to be 0.68 ng/mL (≈ 2.41 nM). In addition, the midpoint of the response in the assay with Plasmodium falciparum [7], the EC50, lay at 12.1 nM.
